Experimental data from patent publication US20100261710A1, “HDAC Inhibitors” (ARQULE, INC., priority 2007, published 2010).

How the values were obtained:
HDAC6 = biological target: T1, HDAC6 (Homo sapiens, UniProt Q9UBN7); test: HDAC isoform assay, HDAC6
T1 sequence (Q9UBN7 1-1215): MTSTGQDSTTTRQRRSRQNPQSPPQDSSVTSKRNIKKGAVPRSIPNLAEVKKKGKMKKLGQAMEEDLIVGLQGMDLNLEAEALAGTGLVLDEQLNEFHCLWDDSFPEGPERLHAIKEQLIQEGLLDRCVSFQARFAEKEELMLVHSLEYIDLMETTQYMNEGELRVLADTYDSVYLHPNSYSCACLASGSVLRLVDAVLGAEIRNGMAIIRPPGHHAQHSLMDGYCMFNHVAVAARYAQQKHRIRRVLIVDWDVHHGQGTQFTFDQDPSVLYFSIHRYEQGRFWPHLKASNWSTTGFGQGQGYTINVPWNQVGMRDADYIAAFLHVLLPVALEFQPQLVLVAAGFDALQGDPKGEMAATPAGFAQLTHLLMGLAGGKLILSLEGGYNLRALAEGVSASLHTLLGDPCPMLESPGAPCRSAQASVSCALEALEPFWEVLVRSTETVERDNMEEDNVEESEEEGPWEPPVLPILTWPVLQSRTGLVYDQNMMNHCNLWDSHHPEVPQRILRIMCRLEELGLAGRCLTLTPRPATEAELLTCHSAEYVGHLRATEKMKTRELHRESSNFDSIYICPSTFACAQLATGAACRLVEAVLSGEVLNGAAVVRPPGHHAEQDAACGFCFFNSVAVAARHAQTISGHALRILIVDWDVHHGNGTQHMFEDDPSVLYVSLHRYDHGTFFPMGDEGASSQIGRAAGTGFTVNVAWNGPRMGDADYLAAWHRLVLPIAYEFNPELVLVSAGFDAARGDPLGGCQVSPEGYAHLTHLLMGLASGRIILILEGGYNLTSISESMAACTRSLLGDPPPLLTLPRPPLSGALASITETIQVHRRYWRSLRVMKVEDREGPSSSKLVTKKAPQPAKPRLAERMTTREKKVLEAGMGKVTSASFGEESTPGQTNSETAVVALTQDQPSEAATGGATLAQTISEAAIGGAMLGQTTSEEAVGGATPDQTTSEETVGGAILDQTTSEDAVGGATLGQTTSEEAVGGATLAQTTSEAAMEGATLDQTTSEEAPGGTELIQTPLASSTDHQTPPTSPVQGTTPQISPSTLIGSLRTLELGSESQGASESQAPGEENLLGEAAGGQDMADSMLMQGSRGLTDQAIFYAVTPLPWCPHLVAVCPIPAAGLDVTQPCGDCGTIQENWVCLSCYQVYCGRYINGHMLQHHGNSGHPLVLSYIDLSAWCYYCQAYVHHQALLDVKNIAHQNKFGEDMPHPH

HDAC4 = biological target: T2, HDAC4 (Homo sapiens, UniProt P56524); test: HDAC isoform assay, HDAC4; type: biochemical; conditions: substrate KI-177; read-out: HDAC4, IC50, ELISA (KI-177)
T2 construct: purchased BioMol
T2 sequence (P56524 whole entry, canonical isoform): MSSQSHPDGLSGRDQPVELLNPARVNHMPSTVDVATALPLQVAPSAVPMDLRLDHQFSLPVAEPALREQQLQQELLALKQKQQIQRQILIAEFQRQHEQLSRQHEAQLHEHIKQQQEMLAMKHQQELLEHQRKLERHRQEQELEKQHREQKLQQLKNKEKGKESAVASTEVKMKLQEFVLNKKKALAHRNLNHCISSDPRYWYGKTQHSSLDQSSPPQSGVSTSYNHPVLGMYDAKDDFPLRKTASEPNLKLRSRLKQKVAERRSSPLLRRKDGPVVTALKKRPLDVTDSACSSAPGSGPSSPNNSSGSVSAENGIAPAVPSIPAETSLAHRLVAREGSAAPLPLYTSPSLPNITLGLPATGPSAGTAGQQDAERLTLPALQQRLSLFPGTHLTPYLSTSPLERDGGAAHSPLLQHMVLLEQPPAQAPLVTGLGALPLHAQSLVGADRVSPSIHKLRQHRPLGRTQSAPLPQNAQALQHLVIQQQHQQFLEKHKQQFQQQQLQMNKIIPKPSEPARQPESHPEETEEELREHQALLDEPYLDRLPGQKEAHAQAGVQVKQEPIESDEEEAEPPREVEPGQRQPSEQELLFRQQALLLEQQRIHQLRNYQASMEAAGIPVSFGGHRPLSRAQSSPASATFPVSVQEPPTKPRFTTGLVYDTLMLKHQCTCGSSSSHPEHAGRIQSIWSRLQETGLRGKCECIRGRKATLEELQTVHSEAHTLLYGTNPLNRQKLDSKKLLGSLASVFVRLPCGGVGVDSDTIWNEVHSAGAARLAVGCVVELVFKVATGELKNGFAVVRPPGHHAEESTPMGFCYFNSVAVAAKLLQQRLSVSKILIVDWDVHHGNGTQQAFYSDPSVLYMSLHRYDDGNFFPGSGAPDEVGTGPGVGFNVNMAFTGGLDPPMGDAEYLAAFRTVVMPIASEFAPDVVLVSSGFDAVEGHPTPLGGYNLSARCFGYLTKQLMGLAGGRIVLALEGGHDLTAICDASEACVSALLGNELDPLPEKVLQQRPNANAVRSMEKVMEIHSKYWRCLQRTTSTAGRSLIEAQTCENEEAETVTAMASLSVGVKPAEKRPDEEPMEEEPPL

HDAC5 = HDAC5 (Homo sapiens, UniProt Q9UQL6); test: HDAC isoform assay, HDAC5
Sequence of HDAC5 (Q9UQL6 whole entry, canonical isoform): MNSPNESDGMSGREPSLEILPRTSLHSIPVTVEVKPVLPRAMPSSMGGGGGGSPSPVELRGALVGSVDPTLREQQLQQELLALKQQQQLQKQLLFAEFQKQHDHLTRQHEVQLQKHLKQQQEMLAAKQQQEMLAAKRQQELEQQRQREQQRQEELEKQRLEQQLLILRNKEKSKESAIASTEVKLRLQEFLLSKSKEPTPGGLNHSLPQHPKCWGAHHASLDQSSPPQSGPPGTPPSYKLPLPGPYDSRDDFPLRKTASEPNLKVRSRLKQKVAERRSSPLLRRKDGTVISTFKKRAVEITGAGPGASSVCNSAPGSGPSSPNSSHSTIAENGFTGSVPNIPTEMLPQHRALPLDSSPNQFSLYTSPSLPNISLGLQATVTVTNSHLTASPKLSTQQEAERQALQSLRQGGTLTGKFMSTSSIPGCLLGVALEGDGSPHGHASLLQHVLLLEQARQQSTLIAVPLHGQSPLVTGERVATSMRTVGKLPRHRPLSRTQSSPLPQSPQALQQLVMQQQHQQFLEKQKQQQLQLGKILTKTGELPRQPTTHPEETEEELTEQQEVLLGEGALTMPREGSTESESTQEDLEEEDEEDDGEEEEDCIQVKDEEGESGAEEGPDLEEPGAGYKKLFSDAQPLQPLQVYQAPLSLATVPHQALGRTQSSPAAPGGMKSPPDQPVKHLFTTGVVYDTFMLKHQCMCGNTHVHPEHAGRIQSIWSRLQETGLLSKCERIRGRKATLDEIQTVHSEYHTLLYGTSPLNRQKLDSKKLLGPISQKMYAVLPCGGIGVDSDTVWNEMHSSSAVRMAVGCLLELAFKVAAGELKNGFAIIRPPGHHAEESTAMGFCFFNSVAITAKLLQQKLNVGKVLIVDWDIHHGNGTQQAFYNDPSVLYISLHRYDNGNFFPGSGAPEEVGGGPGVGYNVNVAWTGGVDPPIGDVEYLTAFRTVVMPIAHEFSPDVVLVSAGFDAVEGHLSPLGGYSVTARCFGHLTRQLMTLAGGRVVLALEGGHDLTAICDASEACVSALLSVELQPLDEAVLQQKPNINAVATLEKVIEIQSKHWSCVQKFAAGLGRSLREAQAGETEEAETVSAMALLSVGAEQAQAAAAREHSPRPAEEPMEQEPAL

HDAC9 = biological target: T3, HDAC9 (Homo sapiens, UniProt Q9UKV0); test: HDAC isoform assay, HDAC9; type: biochemical
T3 construct: purchased BioMol
T3 sequence (Q9UKV0 whole entry, canonical isoform): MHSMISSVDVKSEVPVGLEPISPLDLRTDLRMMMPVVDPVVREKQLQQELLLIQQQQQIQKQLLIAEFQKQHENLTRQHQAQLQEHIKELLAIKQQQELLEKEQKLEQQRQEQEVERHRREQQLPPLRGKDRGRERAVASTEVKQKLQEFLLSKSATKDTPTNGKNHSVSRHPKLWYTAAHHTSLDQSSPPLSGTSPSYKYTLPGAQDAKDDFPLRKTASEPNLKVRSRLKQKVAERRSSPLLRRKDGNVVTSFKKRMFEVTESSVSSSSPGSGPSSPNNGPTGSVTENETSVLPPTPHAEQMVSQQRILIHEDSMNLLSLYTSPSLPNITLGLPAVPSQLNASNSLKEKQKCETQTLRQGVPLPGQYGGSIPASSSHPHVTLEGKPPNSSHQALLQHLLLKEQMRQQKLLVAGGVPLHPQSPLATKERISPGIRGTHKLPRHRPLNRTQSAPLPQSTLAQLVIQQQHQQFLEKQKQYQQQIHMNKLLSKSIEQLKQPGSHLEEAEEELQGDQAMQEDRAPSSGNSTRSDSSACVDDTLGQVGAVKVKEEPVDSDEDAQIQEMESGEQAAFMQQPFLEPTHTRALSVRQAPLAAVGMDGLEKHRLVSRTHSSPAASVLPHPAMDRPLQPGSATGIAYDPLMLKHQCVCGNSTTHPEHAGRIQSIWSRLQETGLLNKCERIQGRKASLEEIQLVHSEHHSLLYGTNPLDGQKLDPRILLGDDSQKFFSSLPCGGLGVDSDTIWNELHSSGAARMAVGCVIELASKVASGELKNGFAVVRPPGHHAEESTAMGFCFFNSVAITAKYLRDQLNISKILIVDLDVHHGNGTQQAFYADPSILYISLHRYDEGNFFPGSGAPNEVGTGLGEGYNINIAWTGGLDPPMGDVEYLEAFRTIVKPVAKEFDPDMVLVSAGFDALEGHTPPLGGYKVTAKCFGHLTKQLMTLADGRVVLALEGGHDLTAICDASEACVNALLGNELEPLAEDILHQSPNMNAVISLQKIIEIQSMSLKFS

SMILES	IC50 (HDAC6) [nM]	IC50 (HDAC4) [nM]	IC50 (HDAC5) [nM]	IC50 (HDAC9) [nM]
O=C(CCCCCCNC(=O)C(=O)c1cn2c3c(cccc13)CCC2)NO [compound 12, 7-{[5,6-dihydro-4H-pyrrolo[3,2,1-ij]quinolin-1-yl(oxo)acetyl]amino}-N-hydroxyheptanamide]	134	298	260	1060
O=C(CCCCCCNC(=O)Nc1cn2c3c(cccc13)CCC2)NO [compound 11, 7-[(5,6-dihydro-4H-pyrrolo[3,2,1-ij]quinolin-1-ylcarbamoyl)amino]-N-hydroxyheptanamide]	66.4	40.4	353	88.7
O=C(CCCCCNC(=O)Nc1cn2c3c(cccc13)CCC2)NO [compound 13, 6-[(5,6-dihydro-4H-pyrrolo[3,2,1-ij]quinolin-1-ylcarbamoyl)amino]-N-hydroxyhexanamide]	63.2	–	201	97.2
O=C(CCCCCCNC(=O)c1cn2c3c(cccc13)CCC2)NO [compound 3, N-[7-(hydroxyamino)-7-oxoheptyl]-5,6-dihydro-4H-pyrrolo[3,2,1-ij]quinoline-1-carboxamide]	158	40.5	95	413
O=C(CCCNC(=O)C(=O)c1cn2c3c(cccc13)CCC2)NO [compound 9, 4-{[5,6-dihydro-4H-pyrrolo[3,2,1-ij]quinolin-1-yl(oxo)acetyl]amino}-N-hydroxybutanamide]	692	–	–	–
O=C(CCCCCNC(=O)c1cn2c3c(cccc13)CCC2)NO [compound 2, N-[6-(hydroxyamino)-6-oxohexyl]-5,6-dihydro-4H-pyrrolo[3,2,1-ij]quinoline-1-carboxamide]	67.2	–	91.1	106
O=C(CCCCCNC(=O)C(=O)c1cn2c3c(cccc13)CCC2)NO [compound 8, 6-{[5,6-dihydro-4H-pyrrolo[3,2,1-ij]quinolin-1-yl(oxo)acetyl]amino}-N-hydroxyhexanamide]	77.6	–	163	–
